molecular target: T1, human GLP-1 receptor (Homo sapiens, UniProt P43220); assay: GLP-1 receptor-mediated agonist activity: cAMP level in hGLP-1R/HEK293 cell line (HTRF); assay type: cell-based; details: cAMP levels in hGLP-1R/HEK293 cell line; Table 1; read-out: determined EC50
T1 construct: HA (N); expressed in transfected cells
T1 sequence (P43220 24-463): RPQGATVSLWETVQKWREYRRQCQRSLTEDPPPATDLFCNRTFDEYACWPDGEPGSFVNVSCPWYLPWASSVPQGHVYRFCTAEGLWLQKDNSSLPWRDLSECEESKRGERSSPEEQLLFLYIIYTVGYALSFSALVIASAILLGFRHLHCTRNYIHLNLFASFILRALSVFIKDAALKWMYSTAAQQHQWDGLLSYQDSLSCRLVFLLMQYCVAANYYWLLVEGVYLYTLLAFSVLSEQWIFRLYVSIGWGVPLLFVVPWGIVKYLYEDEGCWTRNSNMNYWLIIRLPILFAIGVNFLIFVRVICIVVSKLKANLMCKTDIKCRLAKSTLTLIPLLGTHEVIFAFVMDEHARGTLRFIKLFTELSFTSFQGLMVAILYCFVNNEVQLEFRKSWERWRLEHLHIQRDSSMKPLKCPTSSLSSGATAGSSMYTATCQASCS
Procedure: The hGLP-1R/HEK293 cells were digested, centrifuged and resuspended in culture medium (DMEM+0.2% BSA, m/v), and the cell density was adjusted to 2×10^5 cells/mL. IBMX (3-isobutyl-1-methylxanthine, final concentration of 0.5 mM) was added to the cell suspension and added to a 384-well plate at 5 µL (1×10^3 cells)/well. The compound was dissolved in DMSO to prepare a stock solution with a concentration of 10 mM. The experiment started with a concentration of 100 µM which was diluted 10 times in a series of 7 dilution points, with the 8th point being DMSO. 2 µL of the test compound of different concentrations was added to 98 µL of culture medium, shaken and mixed, 5 µL was taken and added to a 384-well plate (final concentration of the test compound was 0-100 nM, final concentration of DMSO was 1%, v/v), which was then incubated in the incubator (37°C, 5% CO2) in the dark for 30 min, then 10 µL of cAMP detection reagent (LANCE Ultra cAMP Detecion Kit, PerkinElmer, #TRF0264) was added, mixed well, and reacted at room temperature in the dark for 1 h. After the reaction was completed, the HTRF signal was read using the Envision 2104 multi-function microplate reader. All samples were tested in triplicate wells, and the ratio of the acceptor-donor excitation signal in each single well was calculated using the formula Ratio = Signal 665nM/Signal 620nM. The HTRF signal ratio and the corresponding compound concentration were analyzed and processed using GraphPad Prism 8 software, and the EC50 value of the compound was obtained by fitting the S-type dose-response curve and calculating.

SMILES | EC50
CC1(c2ccc(Cl)cn2)Oc2cccc(C3CCN(Cc4nc5c(OC(F)F)cc(C(=O)O)cc5n4C[C@@H]4CCO4)CC3)c2O1 (stereo partly drawn) [Compound 62, 2-((4-(2-(5-chloropyridin-2-yl)-2-methylbenzo[d][1,3]dioxol-4-yl)piperidin-1-yl)methyl)-4-(difluoromethoxy)-1-(((S)-oxetan-2-yl)methyl)-1H-benzo[d]imidazole-6-carboxylic acid] | 0.022 nM
[2H]C([2H])([2H])C([2H])([2H])Oc1cc(C(=O)O)cc2c1nc(CN1CCN(c3cccc4c3O[C@](C)(c3ccc(Cl)cc3F)O4)C=N1)n2C[C@@H]1CCO1 [Compound 76-2, 2-((4-((R)-2-(4-chloro-2-fluorophenyl)-2-methylbenzo[d][1,3]dioxol-4-yl)-5,6-dihydro-1,2,4-triazin-1(4H)-yl)methyl)-4-(ethoxy-d5)-1-(((S)-oxetan-2-yl)methyl)-1H-benzo[d]imidazole-6-carboxylic acid] | 0.604 nM
COc1cc(C(=O)O)cc2c1nc(CN1CCC(c3cccc4c3OC(C)(c3ccc(C(F)(F)F)cn3)O4)CC1)n2C[C@@H]1CCO1 (stereo partly drawn) [Compound 55, 4-methoxy-2-((4-(2-methyl-2-(5-(trifluoromethyl)pyridin-2-yl)benzo[d][1,3]dioxol-4-yl)piperidin-1-yl)methyl)-1-(((S)-oxetan-2-yl)methyl)-1H-benzo[d]imidazole-6-carboxylic acid] | 0.0252 nM
CCOc1cc(C(=O)O)cc2c1nc(CN1CCN(c3cccc4c3OC(C)(c3cc(F)c(Cl)cc3F)O4)C=N1)n2C[C@@H]1CCO1 (stereo partly drawn) [Compound 79, 2-((4-(2-(4-chloro-2,5-difluorophenyl)-2-methylbenzo[d][1,3]dioxol-4-yl)-5,6-dihydro-1,2,4-triazin-1(4H)-yl)methyl)-4-ethoxy-1-(((S)-oxetan-2-yl)methyl)-1H-benzo[d]imidazole-6-carboxylic acid] | 0.0442 nM
COc1cc(C(=O)O)cc2c1nc(CN1CCC(c3ccccc3OCc3ccc(Cl)c4c3OCC4)CC1)n2C[C@@H]1CCO1 [Compound 45, (S)-2-((4-(2-((4-chloro-2,3-dihydrobenzofuran-7-yl)methoxy)phenyl)piperidin-1-yl)methyl)-4-methoxy-1-(oxetan-2-ylmethyl)-1H-benzo[d]imidazole-6-carboxylic acid] | 0.0509 nM
COc1cc(C(=O)O)cc2c1nc(CN1CCC(c3ccccc3OCc3ccc(C#N)cc3F)CC1)n2C[C@@H]1CCO1 [Compound 47, (S)-2-((4-(2-((4-cyano-2-fluorobenzyl)oxy)phenyl)piperidin-1-yl)methyl)-4-methoxy-1-(oxetan-2-ylmethyl)-1H-benzo[d]imidazole-6-carboxylic acid] | 0.0613 nM

More lines, now with the values ahead:

EC50 | SMILES
0.0083 nM | COc1cc(C(=O)O)cc2c1nc(CN1CCC(c3cccc4c3OC(C)(c3ccc(Cl)cc3F)O4)CC1)n2C[C@@H]1CCO1 (stereo partly drawn) [Compound 36, 2-((4-(2-(4-chloro-2-fluorophenyl)-2-methylbenzo[d][1,3]dioxol-4-yl)piperidin-1-yl)methyl)-4-methoxy-1-(((S)-oxetan-2-yl)methyl)-1H-benzo[d]imidazole-6-carboxylic acid]
0.0212 nM | [2H]C([2H])([2H])C([2H])([2H])Oc1cc(C(=O)O)cc2c1nc(CN1CCN(c3cccc4c3OC(C)(c3ccc(F)cc3F)O4)C=N1)n2C[C@@H]1CCO1 (stereo partly drawn) [Compound 87, 2-((4-(2-(2,4-difluorophenyl)-2-methylbenzo[d][1,3]dioxol-4-yl)-5,6-dihydro-1,2,4-triazin-1(4H)-yl)methyl)-4-(ethoxy-d5)-1-(((S)-oxetan-2-yl)methyl)-1H-benzo[d]imidazole-6-carboxylic acid]
0.0093 nM | [2H]C([2H])([2H])Oc1cc(C(=O)O)cc2c1nc(CN1CCN(c3cccc(OCc4ccc(Cl)cc4F)n3)C=N1)n2C[C@@H]1CCO1 [Compound 26, (S)-2-((4-(6-((4-chloro-2-fluorobenzyl)oxy)pyridin-2-yl)-5,6-dihydro-1,2,4-triazin-1(4H)-yl)methyl)-4-(methoxy-d3)-1-(oxetan-2-ylmethyl)-1H-benzo[d]imidazole-6-carboxylic acid]
0.0034 nM | COc1cc(C(=O)O)cc2c1nc(CN1CCN(c3cccc(OCc4ccc(C#N)cc4F)n3)C=N1)n2C[C@@H]1CCO1 [Compound 8, (S)-2-((4-(6-((4-cyano-2-fluorobenzyl)oxy)pyridin-2-yl)-5,6-dihydro-1,2,4-triazin-1(4H)-yl)methyl)-4-methoxy-1-(oxetan-2-ylmethyl)-1H-benzo[d]imidazole-6-carboxylic acid]
0.0092 nM | COc1cc(Cl)ccc1C1(C)Oc2cccc(N3C=NN(Cc4nc5c(OC)cc(C(=O)O)cc5n4C[C@@H]4CCO4)CC3)c2O1 (stereo partly drawn) [Compound 83, 2-((4-(2-(4-chloro-2-methoxyphenyl)-2-methylbenzo[d][1,3]dioxol-4-yl)-5,6-dihydro-1,2,4-triazin-1(4H)-yl)methyl)-4-methoxy-1-(((S)-oxetan-2-yl)methyl)-1H-benzo[d]imidazole-6-carboxylic acid]
0.012 nM | N#Cc1ccc(COc2cccc(C3CCN(Cc4nc5c(OCC6CC6)cc(C(=O)O)cc5n4C[C@@H]4CCO4)CC3)n2)c(F)c1 [Compound 5, (S)-2-((4-(6-((4-cyano-2-fluorobenzyl)oxy)pyridin-2-yl)piperidin-1-yl)methyl)-4-(cyclopropylmethoxy)-1-(oxetan-2-ylmethyl)-1H-benzo[d]imidazole-6-carboxylic acid]
0.0111 nM | COc1cc(C(=O)O)cc2c1nc(CN1CCN(c3cccc4c3OC(C)(c3ccc(Cl)cc3F)O4)CC1)n2C[C@@H]1CCO1 (stereo partly drawn) [Compound 40, 2-((4-(2-(4-chloro-2-fluorophenyl)-2-methylbenzo[d][1,3]dioxol-4-yl)piperazin-1-yl)methyl)-4-methoxy-1-(((S)-oxetan-2-yl)methyl)-1H-benzo[d]imidazole-6-carboxylic acid]
0.0022 nM | N#Cc1ccc(COc2cccc(N3C=NN(Cc4nc5c(OC6CC6)cc(C(=O)O)cc5n4C[C@@H]4CCO4)CC3)n2)c(F)c1 [Compound 13, (S)-2-((4-(6-((4-cyano-2-fluorobenzyl)oxy)pyridin-2-yl)-5,6-dihydro-1,2,4-triazin-1(4H)-yl)methyl)-4-cyclopropyloxy-1-(oxetan-2-ylmethyl)-1H-benzo[d]imidazole-6-carboxylic acid]
0.0098 nM | CCOc1cc(C(=O)O)cc2c1nc(CN1CCC(c3cccc4c3OC(C)(c3ccc(C(F)(F)F)cn3)O4)CC1)n2C[C@@H]1CCO1 (stereo partly drawn) [Compound 56, 4-ethoxy-2-((4-(2-methyl-2-(5-(trifluoromethyl)pyridin-2-yl)benzo[d][1,3]dioxol-4-yl)piperidin-1-yl)methyl)-1-(((S)-oxetan-2-yl)methyl)-1H-benzo[d]imidazole-6-carboxylic acid]
0.0011 nM | CCOc1cc(C(=O)O)cc2c1nc(CN1CCC(c3cccc(OCc4ccc(C#N)cc4F)n3)CC1)n2C[C@@H]1CCO1 [Compound 2, (S)-2-((4-(6-((4-cyano-2-fluorobenzyl)oxy)pyridin-2-yl)piperidin-1-yl)methyl)-4-ethoxy-1-(oxetan-2-ylmethyl)-1H-benzo[d]imidazole-6-carboxylic acid]
0.0087 nM | COc1cc(C(=O)O)cc2c1nc(CN1CCC(c3cccc(OCc4ccc(C(F)(F)F)cc4F)n3)CC1)n2C[C@@H]1CCO1 [Compound 27, (S)-2-((4-(6-((2-fluoro-4-(trifluoromethyl)benzyl)oxy)pyridin-2-yl)piperidin-1-yl)methyl)-4-methoxy-1-(oxetan-2-ylmethyl)-1H-benzo[d]imidazole-6-carboxylic acid]
0.0065 nM | [2H]C([2H])([2H])Oc1cc(C(=O)O)cc2c1nc(CN1CCC(c3cccc4c3OC(C)(c3ccc(Cl)cc3F)O4)CC1)n2C[C@@H]1CCO1 (stereo partly drawn) [Compound 74, 2-((4-(2-(4-chloro-2-fluorophenyl)-2-methylbenzo[d][1,3]dioxol-4-yl)piperidin-1-yl)methyl)-4-(methoxy-d3)-1-(((S)-oxetan-2-yl)methyl)-1H-benzo[d]imidazole-6-carboxylic acid]
0.0111 nM | CCOc1cc(C(=O)O)cc2c1nc(CN1CCN(c3cccc4c3OC(C)(c3ccc(Cl)cn3)O4)C=N1)n2C[C@@H]1CCO1 (stereo partly drawn) [Compound 69, 2-((4-(2-(5-chloropyridin-2-yl)-2-methylbenzo[d][1,3]dioxol-4-yl)-5,6-dihydro-1,2,4-triazin-1(4H)-yl)methyl)-4-ethoxy-1-(((S)-oxetan-2-yl)methyl)-1H-benzo[d]imidazole-6-carboxylic acid]
0.0093 nM | COc1cc(C(=O)O)cc2c1nc(CN1CCC(c3cccc4c3OC(C)(c3ccc(C(F)(F)F)cc3F)O4)CC1)n2C[C@@H]1CCO1 (stereo partly drawn) [Compound 53, 2-((4-(2-(2-fluoro-4-(trifluoromethyl)phenyl)-2-methylbenzo[d][1,3]dioxol-4-yl)piperidin-1-yl)methyl)-4-methoxy-1-(((S)-oxetan-2-yl)methyl)-1H-benzo[d]imidazole-6-carboxylic acid]
0.0095 nM | COc1cc(C#N)ccc1COc1ccccc1C1CCN(Cc2nc3c(OC)cc(C(=O)O)cc3n2C[C@@H]2CCO2)CC1 [Compound 44, (S)-2-((4-(2-((4-cyano-2-methoxybenzyl)oxy)phenyl)piperidin-1-yl)methyl)-4-methoxy-1-(oxetan-2-ylmethyl)-1H-benzo[d]imidazole-6-carboxylic acid]

same assay, conditions: cAMP levels of the hGLP-1R/HEK293 cell line; Table 2, comparison with reference compounds; read-out: EC50

EC50 | SMILES
0.0458 nM | O=C(O)c1ccc2nc(CN3CCC(c4cccnc4OCc4ccc(Cl)cc4F)CC3)n(C[C@@H]3CCO3)c2c1 [WO2019239371 , Example 1, reference compound]
0.336 nM | CC1(c2ccc(Cl)cn2)Oc2cccc(N3C=NN(Cc4nc5ccc(C(=O)O)cc5n4C[C@@H]4CCO4)CC3)c2O1 (stereo partly shown) [CN2022114139828 , Compound 36, reference compound]
0.0127 nM | N#Cc1ccc(COc2cccc(C3CCN(Cc4nc5ccc(C(=O)O)cc5n4C[C@@H]4CCO4)CC3)n2)c2occc12 [CN113480534 , Compound 3, reference compound]
0.022 nM | CC1(c2ccc(Cl)cc2F)Oc2cccc(C3CCN(Cc4nc5ccc(C(=O)O)cc5n4C[C@@H]4CCO4)CC3)c2O1 (stereo partly shown) [WO2019239319 , Example 7, reference compound]

From patent EP4650353A1 (Shanghai Institute of Materia Medica, Chinese Academy of …, priority 2023, dated 2024)
